Laboratory results from patent publication US20240279237A1, “FUSED BICYCLIC HETEROARYL COMPOUNDS USEFUL AS NLRP3 INHIBITORS” (Hoffmann-La Roche Inc., priority 2021, published 2024).

What follows are compounds tested against T1, NLRP3 (Homo sapiens, UniProt Q96P20) (assay: THP-1 Cells Pyroptosis Assay). Settings: THP-1 cells with 1.0 μg/ml LPS; compound 3 hours; nigericin 5 μM 1 hr; resazurin readout.
T1 construct: Seed THP-1 cells (25,000 cells/well) containing 1.0 μg/ml LPS in 40 μl of RPMI medium; host or cells: THP-1 cells
T1 sequence (Q96P20 whole entry): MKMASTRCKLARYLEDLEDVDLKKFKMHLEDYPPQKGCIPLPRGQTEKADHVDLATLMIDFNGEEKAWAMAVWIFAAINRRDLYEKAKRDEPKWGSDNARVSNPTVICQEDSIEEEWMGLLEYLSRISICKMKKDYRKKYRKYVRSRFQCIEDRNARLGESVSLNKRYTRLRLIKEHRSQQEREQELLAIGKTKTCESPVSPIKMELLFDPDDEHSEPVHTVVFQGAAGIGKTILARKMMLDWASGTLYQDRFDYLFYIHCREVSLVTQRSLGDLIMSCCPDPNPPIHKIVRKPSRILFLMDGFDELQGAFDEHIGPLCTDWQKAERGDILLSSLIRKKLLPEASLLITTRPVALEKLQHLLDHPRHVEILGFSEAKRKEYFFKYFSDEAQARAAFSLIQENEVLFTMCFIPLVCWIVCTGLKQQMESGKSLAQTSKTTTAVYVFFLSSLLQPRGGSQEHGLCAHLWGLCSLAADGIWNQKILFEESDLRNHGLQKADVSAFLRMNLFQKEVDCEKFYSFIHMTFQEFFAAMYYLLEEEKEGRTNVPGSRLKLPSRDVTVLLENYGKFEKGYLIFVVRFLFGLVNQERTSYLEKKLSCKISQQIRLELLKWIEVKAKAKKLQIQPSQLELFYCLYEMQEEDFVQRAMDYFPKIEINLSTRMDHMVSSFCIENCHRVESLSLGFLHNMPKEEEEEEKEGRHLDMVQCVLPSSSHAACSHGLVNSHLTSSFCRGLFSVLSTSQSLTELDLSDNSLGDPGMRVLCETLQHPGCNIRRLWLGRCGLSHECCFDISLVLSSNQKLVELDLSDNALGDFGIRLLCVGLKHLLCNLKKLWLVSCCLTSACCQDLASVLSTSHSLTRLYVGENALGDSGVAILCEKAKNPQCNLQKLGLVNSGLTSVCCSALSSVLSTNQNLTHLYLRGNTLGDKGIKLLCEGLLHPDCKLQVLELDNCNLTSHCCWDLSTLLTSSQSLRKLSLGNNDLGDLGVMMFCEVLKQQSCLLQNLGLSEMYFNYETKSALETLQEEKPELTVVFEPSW
Format: cell-based
Outline: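 THP-1 cells in serum-free RPMI primed with LPS (1 μg/ml FAC), incubated with compound 3 h at 37 °C, then nigericin (5 μM FAC) for 1 h. Supernatant removed after spin; viability read by resazurin (100 μM FAC) reduction after a further 1-2 h at 37 °C.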
In the case of `Cc1cc(C(F)(F)F)cc(O)c1-c1ccc2oc(N[C@@H]3CCCN(CCO)C3)nc2n1` [Example 52, 2-[2-[[(3R)-1-(2-Hydroxyethyl)-3-piperidyl]amino]oxazolo[4,5-b]pyridin-5-yl]-3-methyl-5-(trifluoromethyl)phenol], the IC50 is reported as 2.3 nM. In the case of `CCN1CCC[C@@H](Nc2nc3nc(-c4c(O)cc(C(F)(F)F)cc4F)ccc3o2)C1` [Example 53, 2-[2-[[(3R)-1-Ethyl-3-piperidyl]amino]oxazolo[4,5-b]pyridin-5-yl]-3-fluoro-5-(trifluoromethyl)phenol], the IC50 is reported as 2.6 nM. For `CCN1C[C@@H](F)C[C@@H](Nc2nc3nc(-c4c(C)cc(Cl)cc4O)ccc3o2)C1` [Example 54, 5-Chloro-2-[2-[[(3R,5S)-1-ethyl-5-fluoro-3-piperidyl]amino]oxazolo[4,5-b]pyridin-5-yl]-3-methyl-phenol], the IC50 was 10.1 nM. In the case of `Cc1cc(C(F)(F)F)cc(O)c1-c1ccc2oc(N[C@@H]3C[C@H]3N(C)C)nc2n1` [Example 55, 2-[2-[[(1R,2R)-2-(Dimethylamino)cyclopropyl]amino]oxazolo[4,5-b]pyridin-5-yl]-3-methyl-5-(trifluoromethyl)phenol], the IC50 is reported as 17.8 nM. Work on `Cc1cc(C#N)cc(O)c1-c1ccc2oc(N[C@@H]3C[C@H](O)CN(C)C3)nc2n1` [Example 56, 3-Hydroxy-4-[2-[[(3R,5S)-5-hydroxy-1-methyl-3-piperidyl]amino]oxazolo[4,5-b]pyridin-5-yl]-5-methyl-benzonitrile] yielded an IC50 of 18.9 nM. `Cc1cc(C(F)(F)F)cc(O)c1-c1ccc2oc(NC[C@H]3C[C@@](C)(O)C3)nc2n1` [Example 57, cis-2-[2-[(3-Hydroxy-3-methyl-cyclobutyl)methylamino]oxazolo[4,5-b]pyridin-5-yl]-3-methyl-5-(trifluoromethyl)phenol] was tested, and the IC50 was 50.3 nM. For `Cc1cc(C(F)(F)F)cc(O)c1-c1ccc2oc(NC[C@H]3C[C@](C)(O)C3)nc2n1` [Example 58, trans-2-[2-[(3-hydroxy-3-methyl-cyclobutyl)methylamino]oxazolo[4,5-b]pyridin-5-yl]-3-methyl-5-(trifluoromethyl)phenol], the IC50 was 95.9 nM. In the case of `CCN1CC(CNc2nc3nc(-c4c(C)cc(Cl)cc4O)ccc3o2)C1` [Example 59, 5-Chloro-2-[2-[(1-ethylazetidin-3-yl)methylamino]oxazolo[4,5-b]pyridin-5-yl]-3-methyl-phenol], the IC50 is reported as 30.1 nM. `Cc1cc(C(F)(F)F)cc(O)c1-c1ccc2oc(N[C@@H]3CCCN(C4CC(O)C4)C3)nc2n1` (stereo partly drawn) [Example 61, 2-[2-[[(3R)-1-(3-hydroxycyclobutyl)-3-piperidyl]amino]oxazolo[4,5-b]pyridin-5-yl]-3-methyl-5-(trifluoromethyl)phenol] gave an IC50 of 39.4 nM. With `Cc1cc(C(F)(F)F)cc(O)c1-c1ccc2oc(N3CC4COCC4C3)nc2n1` (stereo not shown) [Example 62, 2-[2-(1,3,3a,4,6,6a-Hexahydrofuro[3,4-c]pyrrol-5-yl)oxazolo[4,5-b]pyridin-5-yl]-3-methyl-5-(trifluoromethyl)phenol] the IC50 was 84.8 nM. `Cc1cc(Cl)cc(O)c1-c1ccc2oc(N[C@@H]3CCCN(C4COC4)C3)nc2n1` [Example 63, 5-Chloro-3-methyl-2-[2-[[(3R)-1-(oxetan-3-yl)-3-piperidyl]amino]oxazolo[4,5-b]pyridin-5-yl]phenol] was tested, and the IC50 was 57.5 nM. Work on `Cc1cc(C(F)(F)F)cc(O)c1-c1ccc2oc(N3CCO[C@@H]4CNC[C@H]43)nc2n1` [Example 64A, 2-[2-[(4aR,7aR)-3,4a,5,6,7,7a-Hexahydro-2H-pyrrolo[3,4-b][1,4]oxazin-4-yl]oxazolo[4,5-b]pyridin-5-yl]-3-methyl-5-(trifluoromethyl)phenol] yielded an IC50 of 1.7 nM. Work on `Cc1cc(C(F)(F)F)cc(O)c1-c1ccc2oc(N3CCO[C@H]4CNC[C@@H]43)nc2n1` [Example 64B, 2-[2-[(4aS,7aS)-3,4a,5,6,7,7a-Hexahydro-2H-pyrrolo[3,4-b][1,4]oxazin-4-yl]oxazolo[4,5-b]pyridin-5-yl]-3-methyl-5-(trifluoromethyl)phenol] yielded an IC50 of 13.9 nM.
